Tested on: K86415-001-R-J1-PDC complex spheroids, viability
Test: Anticancer human tumor K86415-001-R-J1-PDC patient-derived lung adenocarcinoma cell line growth inhibition [RAS]
Details: for IC50: curve of first compound; for viability, T/C: stronger effect = lower value; active = viability on the fitted dose curve at most 10% of control; inactive = the rest
How it was run: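 Tumour cells grown as complex spheroids with HUVEC endothelial cells and mesenchymal stem cells, treated with RAS pathway inhibitor combinations. Each agent spans half-log steps from near clinical Cmax, or 10 microM where Cmax is unknown.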

[1] = second compound 0.000949 µM, first compound 0.0316 µM
[2] = second compound 0.000949 µM, first compound 0.1 µM
[3] = second compound 0.003 µM, first compound 0.0316 µM
[4] = second compound 0.003 µM, first compound 0.1 µM
[5] = second compound 0.00949 µM, first compound 0.0316 µM
[6] = second compound 0.00949 µM, first compound 0.1 µM
[7] = second compound 0.03 µM, first compound 0.0316 µM
[8] = second compound 0.03 µM, first compound 0.1 µM
[9] = second compound 0.0949 µM, first compound 0.0316 µM
[10] = second compound 0.0949 µM, first compound 0.1 µM
[11] = second compound 0.3 µM, first compound 0.0316 µM
[12] = second compound 0.3 µM, first compound 0.1 µM
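Also: spheroids exposed to agents for seven days before readout.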

NC1c2ccccc2OC12CCN(c1cnc3c(N4CCCc5ncccc54)n[nH]c3n1)CC2 (centres undefined) + CCn1c(-c2cccnc2C(C)OC)c2c3cc(ccc31)N1CCOC(CC(NC(=O)C(C(C)C)N(C)C(=O)C3(F)CCN(C(=O)C#CC(C)(C)N(C)C)CC3)C(=O)N3CCCC(N3)C(=O)OCC(C)(C)C2)C1
active: viability, T/C [2] 8.22% | viability, T/C (second compound 0.000949 µM, first compound 0.316 µM) 6.07% | viability, T/C (second compound 0.000949 µM, first compound 1 µM) 6.52% | viability, T/C (second compound 0.000949 µM, first compound 3.16 µM) 7.18% | viability, T/C (second compound 0.000949 µM, first compound 10 µM) 5.23% | viability, T/C [3] 5.86% | viability, T/C [4] 4.35% | viability, T/C (second compound 0.003 µM, first compound 0.316 µM) 4.13% | viability, T/C (second compound 0.003 µM, first compound 1 µM) 4.19% | viability, T/C (second compound 0.003 µM, first compound 3.16 µM) 4.18% | viability, T/C (second compound 0.003 µM, first compound 10 µM) 3.63% | viability, T/C [5] 6.83% | viability, T/C [6] 4.56% | viability, T/C (second compound 0.00949 µM, first compound 0.316 µM) 3.88% | viability, T/C (second compound 0.00949 µM, first compound 1 µM) 3.79% | viability, T/C (second compound 0.00949 µM, first compound 3.16 µM) 3.72% | viability, T/C (second compound 0.00949 µM, first compound 10 µM) 4.04% | viability, T/C [7] 5.26% | viability, T/C [8] 5.42% | viability, T/C (second compound 0.03 µM, first compound 0.316 µM) 4.52% | viability, T/C (second compound 0.03 µM, first compound 1 µM) 3.97% | viability, T/C (second compound 0.03 µM, first compound 3.16 µM) 2.82% | viability, T/C (second compound 0.03 µM, first compound 10 µM) 3.8% | viability, T/C [9] 6.89% | viability, T/C [10] 5.55% | viability, T/C (second compound 0.0949 µM, first compound 0.316 µM) 3.94% | viability, T/C (second compound 0.0949 µM, first compound 1 µM) 3.94% | viability, T/C (second compound 0.0949 µM, first compound 3.16 µM) 2.53% | viability, T/C (second compound 0.0949 µM, first compound 10 µM) 3.05% | viability, T/C [11] 5.95% | viability, T/C [12] 4.18% | viability, T/C (second compound 0.3 µM, first compound 0.316 µM) 4.35% | viability, T/C (second compound 0.3 µM, first compound 1 µM) 2.49% | viability, T/C (second compound 0.3 µM, first compound 3.16 µM) 2.46% | viability, T/C (second compound 0.3 µM, first compound 10 µM) 2.39%
inactive: viability, T/C [1] 13.4%
< 31.6 nM: IC50 (second compound 0.000949 µM) | IC50 (second compound 0.003 µM) | IC50 (second compound 0.00949 µM) | IC50 (second compound 0.03 µM) | IC50 (second compound 0.0949 µM) | IC50 (second compound 0.3 µM)

CC(C)n1nc(-c2ccc3oc(N)nc3c2)c2c(N)ncnc21 + CCn1c(-c2cccnc2C(C)OC)c2c3cc(ccc31)N1CCOC(CC(NC(=O)C(C(C)C)N(C)C(=O)C3(F)CCN(C(=O)C#CC(C)(C)N(C)C)CC3)C(=O)N3CCCC(N3)C(=O)OCC(C)(C)C2)C1
< 0.316 nM: IC50 (second compound 0.000949 µM) | IC50 (second compound 0.003 µM) | IC50 (second compound 0.00949 µM) | IC50 (second compound 0.03 µM) | IC50 (second compound 0.0949 µM) | IC50 (second compound 0.3 µM)
inactive: viability, T/C (second compound 0.000949 µM, first compound 0.000316 µM) 34% | viability, T/C (second compound 0.000949 µM, first compound 0.001 µM) 35.4% | viability, T/C (second compound 0.000949 µM, first compound 0.00316 µM) 23.2% | viability, T/C (second compound 0.000949 µM, first compound 0.01 µM) 41.4% | viability, T/C [1] 24.4% | viability, T/C [2] 5.51% | viability, T/C (second compound 0.003 µM, first compound 0.000316 µM) 13% | viability, T/C (second compound 0.003 µM, first compound 0.001 µM) 12.1% | viability, T/C (second compound 0.003 µM, first compound 0.00316 µM) 10.7% | viability, T/C (second compound 0.00949 µM, first compound 0.000316 µM) 13.2% | viability, T/C (second compound 0.00949 µM, first compound 0.001 µM) 9.19% | viability, T/C (second compound 0.00949 µM, first compound 0.00316 µM) 10.9% | viability, T/C (second compound 0.03 µM, first compound 0.000316 µM) 12.8% | viability, T/C (second compound 0.03 µM, first compound 0.001 µM) 10.7% | viability, T/C (second compound 0.03 µM, first compound 0.00316 µM) 11.1% | viability, T/C (second compound 0.0949 µM, first compound 0.000316 µM) 10.1% | viability, T/C (second compound 0.0949 µM, first compound 0.001 µM) 11% | viability, T/C (second compound 0.3 µM, first compound 0.000316 µM) 14.4% | viability, T/C (second compound 0.3 µM, first compound 0.001 µM) 11.3%
active: viability, T/C (second compound 0.003 µM, first compound 0.01 µM) 14.7% | viability, T/C [3] 8.1% | viability, T/C [4] 3.6% | viability, T/C (second compound 0.00949 µM, first compound 0.01 µM) 13.8% | viability, T/C [5] 7.68% | viability, T/C [6] 2.81% | viability, T/C (second compound 0.03 µM, first compound 0.01 µM) 12.4% | viability, T/C [7] 5.85% | viability, T/C [8] 3.42% | viability, T/C (second compound 0.0949 µM, first compound 0.00316 µM) 10.1% | viability, T/C (second compound 0.0949 µM, first compound 0.01 µM) 12.7% | viability, T/C [9] 4.18% | viability, T/C [10] 2.27% | viability, T/C (second compound 0.3 µM, first compound 0.00316 µM) 12.1% | viability, T/C (second compound 0.3 µM, first compound 0.01 µM) 7.79% | viability, T/C [11] 4.23% | viability, T/C [12] 2.06%
